Assay results from patent US10947188B2, “Small molecule ferroptosis inducers” (THE TRUSTEES OF COLUMBIA UNIVERSITY IN THE CITY OF NEW YORK, priority 2016, dated 2021).
Like-named read-outs stand apart in the source and are kept apart here.

Tested on: HT-1080
Assay: Modulatory profiling: Alamar Blue viability, lethal compound cotreated with death modulator (EC50, AUC); for AUC HT.BHA: reference of the scale not given here; for AUC HT.EGTA: reference of the scale not given here
Type: cell-based
Parameters: AUC, modulator HT.3MA / AUC, modulator HT.ALLN / AUC HT.ATA / AUC HT.ActD / AUC HT.BHA / AUC HT.BHT / AUC HT.BocD / AUC HT.CHX / AUC HT.Co2+ / AUC HT.DPQ / AUC HT.EGTA / AUC HT.Lmim / AUC HT.NAD+ / AUC HT.Nec-1 / AUC HT.SP600125 / AUC HT.TLCK / AUC HT.U0126: unit not given beside the values
Conditions: for AUC HT.ATA: HT-1080, modulator ATA; for AUC HT.ActD: HT-1080, modulator ActD; for AUC HT.BHA: HT-1080, modulator BHA; for AUC HT.BHT: HT-1080, modulator BHT; for AUC HT.BocD: HT-1080, modulator BocD; for AUC HT.CHX: HT-1080, modulator CHX; for AUC HT.Co2+: HT-1080, modulator Co2+; for AUC HT.CspA: HT-1080, modulator CspA; for AUC HT.DPQ: HT-1080, modulator DPQ; for AUC HT.Gd3+: HT-1080, modulator Gd3+; for AUC HT.LNAME: HT-1080, modulator LNAME; for AUC HT.Lmim: HT-1080, modulator Lmim; for AUC HT.NAD+: HT-1080, modulator NAD+; for AUC HT.NMMA: HT-1080, modulator NMMA; for AUC HT.Nec-1: HT-1080, modulator Nec-1; for AUC HT.Pepstatin: HT-1080, modulator Pepstatin; for AUC HT.SP600125: HT-1080, modulator SP600125; for AUC HT.TLCK: HT-1080, modulator TLCK; for AUC HT.U0126: HT-1080, modulator U0126; for HT.atoc (AUC) / HT.bCarotene (AUC) / HT.deferox (AUC) / HT.digoxin (AUC) / HT.trolox (AUC) / HT.zVAD (AUC) / EC50: HT-1080; for HT.atoc (AUC): modulator atoc; for HT.bCarotene (AUC): modulator bCarotene; for HT.deferox (AUC): modulator deferox; for HT.digoxin (AUC): modulator digoxin; for HT.trolox (AUC): modulator trolox; for HT.zVAD (AUC): modulator zVAD; for AUC, modulator HT.3MA / AUC, modulator HT.ALLN: HT-1080 cells, modulatory profile value (AUC); for AUC, modulator HT.3MA: lethal compound cotreated with modulator 3MA; for AUC, modulator HT.ALLN: lethal compound cotreated with modulator ALLN; for EC50: Homo sapiens, HT-1080, 48 h, 48 h

SMILES	AUC HT.ATA	AUC HT.ActD	AUC HT.BHA	AUC HT.BHT	AUC HT.BocD	AUC HT.CHX	AUC HT.Co2+	AUC HT.CspA	AUC HT.DPQ	AUC HT.Gd3+	AUC HT.LNAME	AUC HT.Lmim	AUC HT.NAD+	AUC HT.NMMA	HT.atoc (AUC)	HT.bCarotene (AUC)	HT.deferox (AUC)	HT.digoxin (AUC)	HT.trolox (AUC)	HT.zVAD (AUC)	further results
CC(C)C[C@H](NC(=O)[C@H](CC(C)C)NC(=O)[C@H](CC(C)C)NC(=O)OCc1ccccc1)B(O)O [MG262]	0.0332	−0.05854	−0.0765	−0.1219	0.007582	−0.003977	−0.04425	−0.2145	0.008104	−0.003168	0.007002	0.001457	0.07679	−0.004229	0.05222	−0.009255	−0.08465	0.05597	−0.02068	−0.05837	AUC HT.EGTA (HT-1080, modulator EGTA): −0.001152; AUC HT.Nec-1: −0.06817; AUC HT.Pepstatin: −0.006069; AUC HT.SP600125: −0.036; AUC HT.TLCK: 0.03566; AUC HT.U0126: −0.06664; AUC, modulator HT.3MA: −0.06563; AUC, modulator HT.ALLN: −0.1356
CC1=CC(C)(C)Nc2ccc(OC(=O)c3cccnc3)cc21 [CIL47]	0.07043	0.01588	−0.04478	−0.1469	−0.009617	0.007874	−0.2381	0.01761	−0.02038	−0.02263	−0.01288	−0.04173	−0.02784	−0.01195	0.04666	−0.001832	0.01074	0.03489	−0.03828	−0.005894	AUC HT.EGTA (HT-1080, modulator EGTA): 0.001051; AUC, modulator HT.3MA: 0.07294; AUC, modulator HT.ALLN: 0.2227
COc1cc2c(c(OC)c1OC)-c1ccc(OC)c(=O)cc1[C@@H](NC(C)=O)CC2 [Colchicine]	0.1325	0.01343	0.01506	−0.006747	0.1264	0.04333	0.1098	−0.1209	0.01511	0.01351	0.008236	0.1199	0.1471	0.008585	−0.0173	0.01723	0.2984	0.1359	0.01591	0.134	AUC HT.EGTA (HT-1080, modulator EGTA): −0.000119; AUC HT.Nec-1: 0.01661; AUC HT.Pepstatin: 0.004413; AUC HT.SP600125: −0.02858; AUC HT.TLCK: 0.0306; AUC HT.U0126: 0.2237; AUC, modulator HT.3MA: 0.01861; AUC, modulator HT.ALLN: 0.1932
O=C(/C=C/c1cccc(NC(=O)c2cccs2)c1)c1ccccc1 [CIL33]	0.04655	−0.03269	−0.02938	−0.1089	0.006307	0.06763	0.1418	−0.03213	0.02728	−0.02182	0.003047	−0.007068	−0.0189	−0.002248	0.04094	−0.01651	0.1056	−0.03413	−0.05079	0.03457	AUC HT.EGTA (HT-1080, modulator EGTA): −0.007461; AUC, modulator HT.3MA: 0.08789; AUC, modulator HT.ALLN: 0.04123
Cc1ccc(O)c(/N=C/C=C/c2cccc(Br)c2)c1 [CIL27]	0.04845	0.03171	−0.0156	−0.05537	0.003288	0.04576	0.04606	−0.03639	0.02307	−0.0168	0.001204	−0.001055	−0.0034	−0.01331	0.04362	−0.01166	0.1441	0.001262	−0.05943	−0.01508	AUC HT.EGTA (HT-1080, modulator EGTA): 0.02604; AUC, modulator HT.3MA: 0.0766; AUC, modulator HT.ALLN: 0.1636
N/C(=N\OC(=O)C12CC3CC(CC(C3)C1)C2)c1ccccc1 [CIL41]	0.02643	−0.09343	0.1312	0.009338	−0.01678	−0.05459	0.06389	9.4409E−05	0.04282	−0.02592	−0.0121	0.1377	−0.008657	−0.01029	0.316	−0.02182	0.1795	−0.09255	0.161	−0.0167	AUC HT.EGTA (HT-1080, modulator EGTA): 0.02946; effect of ferroptosis inhibitors (iron chelators and lipophilic antioxidants) on lethality in modulatory profiling (HT-1080 and BJeLR): suppression by canonical ferroptosis inhibitors; AUC, modulator HT.3MA: 0.04521; AUC, modulator HT.ALLN: 0.09324; EC50 (DMSO): 5.67 µM; EC50 (cotreated with MEK inh U0126): 20.9 µM; EC50 (cotreated with antioxidant Atoc): 50 µM; EC50 (cotreated with antioxidant BHA): 26 µM; EC50 (cotreated with antioxidant BHT): 12.6 µM; EC50 (cotreated with antioxidant Trolox): 23.4 µM; EC50 (cotreated with iron-chelator Deferoxamine): 124 µM; EC50 (cotreated with iron-chelator Lmim): 69.8 µM
Cc1cccc(-n2ncc(Cl)c(Cl)c2=O)c1 [CIL22]	0.05908	−0.02402	0.001925	−0.05238	0.008628	0.01938	−0.03478	−0.03611	−0.00934	−0.004534	0.04608	0.01659	0.01014	0.01444	0.04912	−0.01174	0.06507	0.05675	−0.004921	0.02835	AUC HT.EGTA: −0.01254; AUC, modulator HT.3MA: −0.01606; AUC, modulator HT.ALLN: 0.02849
